Assays:
Assay in all cases: Brain gene expression (TLDA qPCR)
Assay type in all cases: in vivo, rat
Details in all cases: 15 wk diet; control diet = 1
TNF-α receptor member 1a = tested on: TNF-α receptor member 1a
Procedure: (§1) RNA was extracted from the flash-frozen half brains of the 15 week postweaning rats. The brain was briefly thawed and dissected to isolate the brainstem, cerebellum, cortex, hippocampus, striatum, and the rest of the brain. RNA was extracted from the brain regions using Trizol reagent (Ambion; Life Technologies, Burlington, ON, Canada) according to the manufacturer's protocol. […] Chloroform was added to the Trizol reagent at a ratio of 1:5 (chloroform:Trizol reagent) and the solution was mixed and incubated at room temperature. The solution was then centrifuged at 12,000 g for 15 min at 4°C. […] The samples were then centrifuged at 12,000 g for 10 min at 4°C to precipitate the RNA pellet. […] The pellet was allowed to air dry, and was then dissolved in RNase-free water. A Nanodrop 1000 (NanoDrop Technologies Inc., Wilmington, DE) was used to determine the concentration and purity of each sample by measuring absorbance at 260 and 280 nm. Each sample was aliquoted to make 1 μg of RNA per 10 μl of sample and stored at -80°C. A high-capacity cDNA reverse transcription kit (Applied Biosystems, Burlington, ON, Canada) was used to reverse transcribe 1 μg of RNA according to the manufacturer's instructions. Newly synthesized cDNA was stored at -20°C until the following day when it was loaded onto TaqMan low density array (TLDA) plates. Quantitative real-time PCR was performed using TLDA (Applied Biosystems) on the 7900HT real-time PCR system (Applied Biosystems). cDNA (50 ng) was diluted with water to make a volume of 50 μl and mixed with 50 μl of TaqMan Universal PCR Master Mix (Applied Biosystems). The mixture was then loaded onto a customized preconfigured 384-well TLDA plate according to the manufacturer's protocol. TaqMan gene expression assays were used to assess 21 genes that were previously reported to be differentially expressed with n-3 deprivation. […] All genes were normalized to phosphoglycerate kinase 1. Similar results were found when normalizing to β-actin or 18S rRNA.

[1] = tested on: brain-derived neurotrophic factor
Procedure: as §1

dopamine receptor D2 = tested on: dopamine receptor D2
Procedure: as §1

PPARg = tested on: PPARg
Procedure: as §1

15-lipoxygenase = tested on: 15-lipoxygenase
Procedure: as §1

β-actin = tested on: β-actin
Procedure: as §1

heme oxygenase 1 = tested on: heme oxygenase 1
Procedure: as §1

group 4 cPLA2 = tested on: group 4 cPLA2
Procedure: as §1

retnoid X receptor β = tested on: retnoid X receptor β
Procedure: as §1

[2] = tested on: vesicular monoamine transporter 2
Procedure: as §1

[3] = tested on: epidermal growth factor receptor
Procedure: as §1

tyrosine hydroxylase = tested on: tyrosine hydroxylase
Procedure: as §1

transthyretin = tested on: transthyretin
Procedure: as §1

retnoid X receptor α = tested on: retnoid X receptor α
Procedure: as §1

[4] = tested on: prostaglandin E synthase 3
Procedure: as §1

group 6 iPLA2 = tested on: group 6 iPLA2
Procedure: as §1

group 2a sPLA2 = tested on: group 2a sPLA2
Procedure: as §1

Q: How did the “Brainstem gene expression: TNFaR1a” value (TNF-α receptor member 1a) turn out when `CC/C=C\C/C=C\C/C=C\C/C=C\C/C=C\C/C=C\CCC(=O)O` [DHA, Docosahexaenoic acid] was run?
A: 1.21 RQ

Q: What about the “Cerebellum gene expression: TNFaR1a” value (TNF-α receptor member 1a) of the same compound?
A: 0.96 RQ

Q: And the “Cortex gene expression: TNFaR1a” value (TNF-α receptor member 1a)?
A: 1.10 RQ

Q: And the “Hippocampus gene expression: TNFa R 1a” value (TNF-α receptor member 1a)?
A: 0.99 RQ

Q: And the “Rest of brain gene expression: TNFaR1a” value (TNF-α receptor member 1a)?
A: 1.06 RQ

Q: What about the “Striatum gene expression: TNFaR1a” value (TNF-α receptor member 1a) of the same compound?
A: 0.88 RQ

Q: And the “Brainstem gene expression: BDNF” value [1]?
A: 1.19 RQ

Q: What about the “Cerebellum gene expression: BDNF” value [1] of the same compound?
A: 0.88 RQ

Q: What about the “Cortex gene expression: BDNF” value [1] of the same compound?
A: 1.16 RQ

Q: And the “Hippocampus gene expression: BDNF” value [1]?
A: 1.13 RQ

Q: What about the “Rest of brain gene expression: BDNF” value [1] of the same compound?
A: 0.99 RQ

Q: What about the “Striatum gene expression: BDNF” value [1] of the same compound?
A: 2.10 RQ

Q: And the “Brainstem gene expression: DR D2” value (dopamine receptor D2)?
A: 0.88 RQ

Q: What about the “Cerebellum gene expression: DR D2” value (dopamine receptor D2) of the same compound?
A: 1.09 RQ

Q: What about the “Cortex gene expression: DR D2” value (dopamine receptor D2) of the same compound?
A: 1.12 RQ

Q: And the “Hippocampus gene expression: DR D2” value (dopamine receptor D2)?
A: 0.95 RQ

Q: What about the “Rest of brain gene expression: DR D2” value (dopamine receptor D2) of the same compound?
A: 1.05 RQ

Q: What about the “Striatum gene expression: DR D2” value (dopamine receptor D2) of the same compound?
A: 0.98 RQ

Q: And the “Brainstem gene expression: PPARg” value (PPARg)?
A: 1.11 RQ

Q: And the “Cerebellum gene expression: PPARg” value (PPARg)?
A: 1.07 RQ

Q: What about the “Cortex gene expression: PPARg” value (PPARg) of the same compound?
A: 1.36 RQ

Q: What about the “Hippocampus gene expression: PPARγ” value (PPARg) of the same compound?
A: 0.47 RQ

Q: What about the “Rest of brain gene expression: PPARg” value (PPARg) of the same compound?
A: 1.14 RQ

Q: What about the “Striatum gene expression: PPARg” value (PPARg) of the same compound?
A: 0.83 RQ

Q: What about the “Brainstem gene expression: 15 LOX” value (15-lipoxygenase) of the same compound?
A: 1.68 RQ

Q: And the “Cerebellum gene expression: 15 LOX” value (15-lipoxygenase)?
A: 1.35 RQ

Q: And the “Cortex gene expression: 15 LOX” value (15-lipoxygenase)?
A: 1.04 RQ

Q: And the “Hippocampus gene expression: 15 LOX” value (15-lipoxygenase)?
A: 0.96 RQ

Q: And the “Rest of brain gene expression: 15 LOX” value (15-lipoxygenase)?
A: 1.07 RQ

Q: What about the “Striatum gene expression: 15 LOX” value (15-lipoxygenase) of the same compound?
A: 1.46 RQ

Q: And the “Brainstem gene expression: b-actin” value (β-actin)?
A: 1.10 RQ

Q: And the “Cerebellum gene expression: b actin” value (β-actin)?
A: 0.98 RQ

Q: And the “Cortex gene expression: b actin” value (β-actin)?
A: 1.05 RQ

Q: What about the “Hippocampus gene expression: B-actin” value (β-actin) of the same compound?
A: 1.12 RQ

Q: What about the “Rest of brain gene expression: b actin” value (β-actin) of the same compound?
A: 1.08 RQ

Q: And the “Striatum gene expression: b actin” value (β-actin)?
A: 0.92 RQ

Q: And the “Brainstem gene expression: HO1” value (heme oxygenase 1)?
A: 0.99 RQ

Q: And the “Cerebellum gene expression: HO1” value (heme oxygenase 1)?
A: 0.99 RQ

Q: What about the “Cortex gene expression: HO1” value (heme oxygenase 1) of the same compound?
A: 1.11 RQ

Q: And the “Hippocampus gene expression: HO1” value (heme oxygenase 1)?
A: 1.03 RQ

Q: What about the “Rest of brain gene expression: HO1” value (heme oxygenase 1) of the same compound?
A: 1.04 RQ

Q: What about the “Striatum gene expression: HO1” value (heme oxygenase 1) of the same compound?
A: 0.94 RQ

Q: And the “Brainstem gene expression: cPLA2” value (group 4 cPLA2)?
A: 6.22 RQ

Q: What about the “Cerebellum gene expression: cPLA2” value (group 4 cPLA2) of the same compound?
A: 0.98 RQ

Q: What about the “Cortex gene expression: cPLA2” value (group 4 cPLA2) of the same compound?
A: 1.11 RQ

Q: What about the “Hippocampus gene expression: cPLA2” value (group 4 cPLA2) of the same compound?
A: 0.98 RQ

Q: And the “Rest of brain gene expression: cPLA2” value (group 4 cPLA2)?
A: 0.99 RQ

Q: What about the “Striatum gene expression: cPLA2” value (group 4 cPLA2) of the same compound?
A: 0.92 RQ

Q: What about the “Brainstem gene expression: RXRb” value (retnoid X receptor β) of the same compound?
A: 1.29 RQ

Q: And the “Cerebellum gene expression: RXRb” value (retnoid X receptor β)?
A: 0.96 RQ

Q: And the “Cortex gene expression: RXR b” value (retnoid X receptor β)?
A: 1.05 RQ

Q: And the “Hippocampus gene expression: RXR b” value (retnoid X receptor β)?
A: 1.07 RQ

Q: And the “Rest of brain gene expression: RXR b” value (retnoid X receptor β)?
A: 1.12 RQ

Q: What about the “Striatum gene expression: RXRb” value (retnoid X receptor β) of the same compound?
A: 1.02 RQ

Q: What about the “Brainstem gene expression: VMAT2” value [2] of the same compound?
A: 9.94 RQ

Q: And the “Hippocampus gene expression: VMAT 2” value [2]?
A: 1.26 RQ

Q: What about the “Rest of brain gene expression: VMAT2” value [2] of the same compound?
A: 1.08 RQ

Q: What about the “Brainstem gene expression: EGFR” value [3] of the same compound?
A: 1.14 RQ

Q: What about the “Cerebellum gene expression: EGFR” value [3] of the same compound?
A: 0.96 RQ

Q: What about the “Cortex gene expression: EGFR” value [3] of the same compound?
A: 0.99 RQ

Q: What about the “Hippocampus gene expression: EGFR” value [3] of the same compound?
A: 1.04 RQ

Q: What about the “Rest of brain gene expression: EGFR” value [3] of the same compound?
A: 1.08 RQ

Q: And the “Striatum gene expression: EGFR” value [3]?
A: 0.82 RQ

Q: What about the “Brainstem gene expression: TH” value (tyrosine hydroxylase) of the same compound?
A: 0.98 RQ

Q: What about the “Cerebellum gene expression: TH” value (tyrosine hydroxylase) of the same compound?
A: 1.23 RQ

Q: What about the “Cortex gene expression: TH” value (tyrosine hydroxylase) of the same compound?
A: 1.11 RQ

Q: What about the “Hippocampus gene expression: TH” value (tyrosine hydroxylase) of the same compound?
A: 1.01 RQ

Q: And the “Rest of brain gene expression: TH” value (tyrosine hydroxylase)?
A: 1.18 RQ

Q: What about the “Striatum gene expression: TH” value (tyrosine hydroxylase) of the same compound?
A: 1.19 RQ

Q: And the “Brainstem gene expression: TTR” value (transthyretin)?
A: 0.46 RQ

Q: And the “Cerebellum gene expression: TTR” value (transthyretin)?
A: 0.72 RQ

Q: And the “Cortex gene expression: TTR” value (transthyretin)?
A: 1.49 RQ

Q: And the “Hippocampus gene expression: TTR” value (transthyretin)?
A: 2.40 RQ

Q: What about the “Rest of brain gene expression: TTR” value (transthyretin) of the same compound?
A: 1.08 RQ

Q: And the “Striatum gene expression: TTR” value (transthyretin)?
A: 0.66 RQ

Q: What about the “Brainstem gene expression: RXRa” value (retnoid X receptor α) of the same compound?
A: 1.02 RQ

Q: What about the “Cerebellum gene expression: RXRa” value (retnoid X receptor α) of the same compound?
A: 0.98 RQ

Q: What about the “Cortex gene expression: RXR a” value (retnoid X receptor α) of the same compound?
A: 1.03 RQ

Q: And the “Hippocampus gene expression: RXR a” value (retnoid X receptor α)?
A: 1.10 RQ

Q: And the “Rest of brain gene expression: RXR a” value (retnoid X receptor α)?
A: 1.17 RQ

Q: What about the “Striatum gene expression: RXRa” value (retnoid X receptor α) of the same compound?
A: 1.02 RQ

Q: What about the “Brainstem gene expression: PGES3” value [4] of the same compound?
A: 1.10 RQ

Q: And the “Cerebellum gene expression: PGES3” value [4]?
A: 0.97 RQ

Q: And the “Cortex gene expression: PGES3” value [4]?
A: 1.07 RQ

Q: What about the “Hippocampus gene expression: PGES3” value [4] of the same compound?
A: 1.11 RQ

Q: And the “Rest of brain gene expression: PGES3” value [4]?
A: 1.14 RQ

Q: And the “Striatum gene expression: PGES3” value [4]?
A: 0.92 RQ

Q: What about the “Brainstem gene expression: iPLA2” value (group 6 iPLA2) of the same compound?
A: 1.10 RQ

Q: What about the “Cerebellum gene expression: iPLA2” value (group 6 iPLA2) of the same compound?
A: 1.00 RQ

Q: And the “Cortex gene expression: iPLA2” value (group 6 iPLA2)?
A: 1.09 RQ

Q: What about the “Hippocampus gene expression: iPLA2” value (group 6 iPLA2) of the same compound?
A: 1.05 RQ

Q: And the “Rest of brain gene expression: iPLA2” value (group 6 iPLA2)?
A: 1.10 RQ

Q: And the “Striatum gene expression: iPLA2” value (group 6 iPLA2)?
A: 0.90 RQ

Q: And the “Brainstem gene expression: sPLA2” value (group 2a sPLA2)?
A: 1.10 RQ

Q: And the “Cerebellum gene expression: sPLA2” value (group 2a sPLA2)?
A: 0.98 RQ

Q: And the “Cortex gene expression: spla2” value (group 2a sPLA2)?
A: 1.17 RQ

Q: And the “Hippocampus gene expression: sPLA2” value (group 2a sPLA2)?
A: 0.93 RQ

Q: What about the “Rest of brain gene expression: sPLA2” value (group 2a sPLA2) of the same compound?
A: 1.17 RQ

Q: What about the “Striatum gene expression: sPLA2” value (group 2a sPLA2) of the same compound?
A: 0.68 RQ
